Data on ten molecules can be found in US9884818B2, “Sulphamoylpyrrolamide derivatives and the use thereof as medicaments for the treatment of hepatitis B” (Janssen Sciences Ireland UC, priority 2013, dated 2018).

The subject of data set [1] is HBV. Kind of data set: Anti-HBV activity, HepG2.2.15 stable transfected cell line, HBV DNA from secreted virions by realtime PCR. The format is cell-based. Conditions: Hepatitis B virus, HepG2.2.15, 144 h, HepG2.2.15 cells, 6 days of treatment, HBV DNA from secreted virions; read-out: HepG2 2.15 EC50.
Data set [2] deals with HBV. Kind of data set: Anti-HBV activity, HepG2.117 inducibly HBV producing cell line (Tet-off), intracellular HBV DNA by realtime PCR. The format is cell-based. Conditions: Hepatitis B virus, HepG2.117, 72 h, HepG2.117 cells, 3 days of treatment, intracellular HBV DNA; read-out: HepG2 117 EC50.
The nature of data set [3]: Cytotoxicity in HepG2 cells, Resazurin viability assay. The settings on record: human, HepG2 cells, HepG2 4 days CC50 (μM), incubated for 4 days, Resazurin assay. Background: Alamar Blue is a resazurin reagent that responds to reducing activity.

For `CC[C@@H](NS(=O)(=O)c1cc(C(=O)Nc2ccc(F)c(Cl)c2F)n(C)c1)C(F)(F)F` [Compound 265, N-(3-chloro-2,4-difluoro-phenyl)-1-methyl-4-{[(1R)-1-(trifluoro-methyl)propyl]sulfamoyl}-1H-pyrrole-2-carboxamide], the concentration giving a half-maximal response (EC50) (as a rule, the concentration at which the effect is half-maximal) with HBV [1] came out at 10 nM; with HBV [2], 30 nM. In data set [3], the CC50 (commonly the concentration giving 50% cytotoxicity) at 4 days is more than 25 µM.

Take `Cn1cc(S(=O)(=O)NC2(C(F)(F)F)CCOC2)cc1C(=O)Nc1ccc(F)c(Cl)c1F` (stereo not drawn) [Compound 266, N-(3-chloro-2,4-difluoro-phenyl)-1-methyl-4-{[3-(trifluoromethyl)-tetrahydrofuran-3-yl]sulfamoyl}-1H-pyrrole-2-carboxamide]: the results for the EC50 in the data set with HBV [1] and in the data set with HBV [2] were 20 nM and 30 nM, respectively. For the same molecule, in data set [3], the 50% cytotoxic concentration (CC50) at 4 days was more than 25 µM.

On to `Cn1cc(S(=O)(=O)NC2(C(F)(F)F)CCC2)c(Cl)c1C(=O)Nc1ccc(F)c(F)c1` [Compound 267, 3-chloro-N-(3,4-difluorophenyl)-1-methyl-4-{[1-(trifluoromethyl)-cyclobutyl]sulfamoyl}-1H-pyrrole-2-carboxamide], for which the concentration giving a half-maximal response (EC50) with HBV [1] is 6 nM; in the data set on HBV [2], 9 nM. In data set [3], this molecule displayed a CC50 at 4 days of more than 25 µM.

For `Cn1cc(S(=O)(=O)NC2(C(F)(F)F)CCC2)c(Cl)c1C(=O)Nc1ccc(F)c(Cl)c1` [Compound 268, 3-chloro-N-(3-chloro-4-fluoro-phenyl)-1-methyl-4-{[1-(trifluoro-methyl)cyclobutyl]sulfamoyl}-1H-pyrrole-2-carboxamide], the EC50 is 5 nM in the data set on HBV [1] and 6 nM in the data set with HBV [2]. Besides, the CC50 at 4 days in data set [3] is more than 25 µM.

Take `CC(C)NS(=O)(=O)c1cn(C)c(C(=O)Nc2ccc(F)c(C#N)c2)c1Cl` [Compound 269, 3-Chloro-N-(3-cyano-4-fluorophenyl)-1-methyl-4-[(1-methylethyl)sulfamoyl]-1H-pyrrole-2-carboxamide]: the EC50 stood at 50 nM in the data set on HBV [1] and 70 nM in the data set on HBV [2]. The molecule further registered a CC50 at 4 days in data set [3] of more than 25 µM.

`Cn1cc(S(=O)(=O)NC(C)(C)C(F)(F)F)c(Cl)c1C(=O)Nc1ccc(F)c(C#N)c1` [Compound 270, 3-Chloro-N-(3-cyano-4-fluorophenyl)-1-methyl-4-[(2,2,2-trifluoro-1,1-dimethylethyl)sulfamoyl]-1H-pyrrole-2-carboxamide]: the EC50 with HBV [1] is 60 nM; with HBV [2], 110 nM. Moreover, in data set [3], the 50% cytotoxic concentration (CC50) at 4 days was more than 25 µM.

For the molecule `Cn1cc(S(=O)(=O)NC2(C(F)(F)F)CC2)c(Cl)c1C(=O)Nc1ccc(F)c(C#N)c1` [Compound 271, 3-Chloro-N-(3-cyano-4-fluorophenyl)-1-methyl-4-{[1-(trifluoro-methyl)cyclopropyl]sulfamoyl}-1H-pyrrole-2-carboxamide], the EC50 in the data set with HBV [1] was 9 nM; in the data set with HBV [2], 20 nM. This molecule had a CC50 at 4 days in data set [3] of more than 25 µM.

For `Cc1c(F)ccc(NC(=O)c2c(Cl)c(S(=O)(=O)N[C@H](C)C(F)(F)F)cn2C)c1C#N` [Compound 272, 3-chloro-N-(2-cyano-4-fluoro-3-methyl-phenyl)-1-methyl-4-[[(1R)-2,2,2-trifluoro-1-methyl-ethyl]sulfamoyl]pyrrole-2-carboxamide], the EC50 worked out at 300 nM in the data set with HBV [1] and 760 nM in the data set with HBV [2]. Further, the CC50 at 4 days in data set [3] is more than 25 µM.

For `C[C@@H](NS(=O)(=O)c1cn(C)c(C(=O)Nc2ccc(F)cc2C#N)c1Cl)C(F)(F)F` [Compound 273, 3-chloro-N-(2-cyano-4-fluoro-phenyl)-1-methyl-4-[[(1R)-2,2,2-trifluoro-1-methyl-ethyl]sulfamoyl]pyrrole-2-carboxamide], the EC50 in the data set with HBV [1] amounted to 420 nM; in the data set with HBV [2], 700 nM. In data set [3], this molecule showed a CC50 at 4 days of more than 25 µM.

For the molecule `C[C@@H](NS(=O)(=O)c1cn(C)c(C(=O)Nc2ccc(F)c(C(F)(F)F)c2)c1Cl)C(F)(F)F` [Compound 274, 3-chloro-N-[4-fluoro-3-(trifluoromethyl)phenyl]-1-methyl-4-[[(1R)-2,2,2-trifluoro-1-methyl-ethyl]sulfamoyl]pyrrole-2-carboxamide], the EC50 with HBV [1] was 20 nM; in the data set on HBV [2], 40 nM. In data set [3], this molecule gave a CC50 at 4 days of 19.4 µM.
